From paper PMC2190180 (The Journal of Experimental Medicine, 1976)

How the values were obtained:
[1] = tested on: rabbit peritoneal neutrophils; conditions: cited from earlier work
[2] = tested on: rabbit peritoneal neutrophils; assay: Assay of relative migratory; format: cell-based; conditions: for activity relative to F-Met-Leu as stated in running text: rounded in text from Table II; for times as active as F-Met-Leu, experiment of Fig. 1: single representative experiment (Fig. 1)
[3] = tested on: rabbit neutrophils; format: cell-based; conditions: for induction of lysozyme release at highest concentrations: at concentrations of 1 x 10-~ M or higher (so in the source)
[4] = tested on: rabbit neutrophils; format: cell-based; conditions: for beta-Glucuronidase release Relative activity ± SE: Table III, relative to F-Met-Leu = 1.0; for induction of beta-glucuronidase release at highest concentrations: at concentrations of 1 x 10-~ M or higher (so in the source)
[5] = tested on: neutrophils; conditions: appears competitive; cited from earlier work
[6] = tested on: rabbit peritoneal neutrophils; assay: Test of whether the peptides are chemotactic; format: cell-based; conditions: for nature of induced migration: directed as well as random locomotion

CC(C)C[C@H](NC=O)C(=O)O [F-leucine]
chemotactic activity ([1]; not as active as F-methionine): chemotactic

F-Leu-Trp-Met-Arg
drop in activity relative to F-Leu-Trp-Met ([2]; chemotactic activity): 40 fold

F-Met
induction of lysozyme release at highest concentrations [3]: did not induce release | beta-Glucuronidase release Relative activity ± SE [4]: > 0.00001 | induction of beta-glucuronidase release at highest concentrations [4]: did not induce release

F-Met-Glu
chemotactic activity compared with F-Met-Leu [1]: distinctly less active

F-Met-His
chemotactic activity compared with F-Met-Leu [1]: distinctly less active

F-Met-Leu
Lysozyme release Relative activity ± SE ([3]; Table III, relative to F-Met-Leu = 1.0): 1 | effect on initial rates of erythrophagocytosis [5]: inhibit | beta-Glucuronidase release Relative activity ± SE [4]: 1

F-Met-Leu-Arg
activity relative to F-Met-Leu as stated in running text ([2]; chemotactic activity): one-third

F-Met-Leu-Glu
times as active as F-Met-Leu, experiment of Fig. 1 [2]: 0.71

F-Met-Leu-Leu
activity relative to F-Met-Leu as stated in running text ([2]; chemotactic activity): 9 fold

F-Met-Leu-Phe
measured mean distance from top of filter to front two PMNs ([6]; Table I A, uniform 1.66 x 10^-10 M above and below, 60 min 37C): 71 µm | measured mean distance from top of filter to front two PMNs ([6]; Table I A, uniform 1.85 x 10-11 M above and below, 60 min 37C): 40 µm | measured mean distance from top of filter to front two PMNs ([6]; Table I A, uniform 5 x 10^-10 M above and below, 60 min 37C): 73 µm | measured mean distance from top of filter to front two PMNs ([6]; Table I A, uniform 5.55 x 10-11 M above and below, 60 min 37C): 60 µm | nature of induced migration [6]: truly chemotactic | fold more active than the corresponding unformylated peptide ([2]; chemotactic activity): approximately 10,000 fold | activity relative to F-Met-Leu as stated in running text ([2]; chemotactic activity): 5,000 fold | times as active as F-Met-Leu, experiment of Fig. 1 [2]: 7,300

F-Met-Met-Ala
activity relative to F-Met-Met (Discussion) ([2]; chemotactic activity): essentially the same | activity relative to parent dipeptide F-Met-Met (Results) ([2]; chemotactic activity): same activity

F-Met-Met-Met
measured mean distance from top of filter to front two PMNs ([6]; Table I B, above 10^-6 M, below 10^-6 M (uniform), 80 min 37C): 56 µm | calculated distance for purely random migration (bracketed) ([6]; Table I B, above 10^-6 M, below 10^-7 M): 52 µm | measured mean distance from top of filter to front two PMNs ([6]; Table I B, above 10^-6 M, below 10^-7 M, 80 min 37C): 48 µm | calculated distance for purely random migration (bracketed) ([6]; Table I B, above 10^-6 M, below 10^-8 M): 52 µm | measured mean distance from top of filter to front two PMNs ([6]; Table I B, above 10^-6 M, below 10^-8 M, 80 min 37C): 34 µm | calculated distance for purely random migration (bracketed) ([6]; Table I B, above 10^-6 M, below 10^-9 M): 52 µm | measured mean distance from top of filter to front two PMNs ([6]; Table I B, above 10^-6 M, below 10^-9 M, 80 min 37C): 38 µm | calculated distance for purely random migration (bracketed) ([6]; Table I B, above 10^-7 M, below 10^-6 M): 38 µm | measured mean distance from top of filter to front two PMNs ([6]; Table I B, above 10^-7 M, below 10^-6 M, 80 min 37C): 60 µm | measured mean distance from top of filter to front two PMNs ([6]; Table I B, above 10^-7 M, below 10^-7 M (uniform), 80 min 37C): 34 µm | calculated distance for purely random migration (bracketed) ([6]; Table I B, above 10^-7 M, below 10^-8 M): 34 µm | measured mean distance from top of filter to front two PMNs ([6]; Table I B, above 10^-7 M, below 10^-8 M, 80 min 37C): 36 µm | calculated distance for purely random migration (bracketed) ([6]; Table I B, above 10^-7 M, below 10^-9 M): 33 µm | measured mean distance from top of filter to front two PMNs ([6]; Table I B, above 10^-7 M, below 10^-9 M, 80 min 37C): 34 µm | calculated distance for purely random migration (bracketed) ([6]; Table I B, above 10^-8 M, below 10^-6 M): 35 µm | measured mean distance from top of filter to front two PMNs ([6]; Table I B, above 10^-8 M, below 10^-6 M, 80 min 37C): 62 µm | calculated distance for purely random migration (bracketed) ([6]; Table I B, above 10^-8 M, below 10^-7 M): 30 µm | measured mean distance from top of filter to front two PMNs ([6]; Table I B, above 10^-8 M, below 10^-7 M, 80 min 37C): 47 µm | measured mean distance from top of filter to front two PMNs ([6]; Table I B, above 10^-8 M, below 10^-8 M (uniform), 80 min 37C): 30 µm | calculated distance for purely random migration (bracketed) ([6]; Table I B, above 10^-8 M, below 10^-9 M): 30 µm | measured mean distance from top of filter to front two PMNs ([6]; Table I B, above 10^-8 M, below 10^-9 M, 80 min 37C): 27 µm | calculated distance for purely random migration (bracketed) ([6]; Table I B, above 10^-9 M, below 10^-6 M): 35 µm | measured mean distance from top of filter to front two PMNs ([6]; Table I B, above 10^-9 M, below 10^-6 M, 80 min 37C): 69 µm | calculated distance for purely random migration (bracketed) ([6]; Table I B, above 10^-9 M, below 10^-7 M): 30 µm | measured mean distance from top of filter to front two PMNs ([6]; Table I B, above 10^-9 M, below 10^-7 M, 80 min 37C): 57 µm | calculated distance for purely random migration (bracketed) ([6]; Table I B, above 10^-9 M, below 10^-8 M): 27 µm | measured mean distance from top of filter to front two PMNs ([6]; Table I B, above 10^-9 M, below 10^-8 M, 80 min 37C): 30 µm | nature of induced migration [6]: truly chemotactic | activity relative to parent dipeptide F-Met-Met (Results) ([2]; chemotactic activity): 120- to 150 fold | fold more active than the corresponding unformylated peptide ([2]; chemotactic activity): approximately 20,000 fold

F-Met-Met-Phe
activity relative to parent dipeptide F-Met-Met (Results) ([2]; chemotactic activity): 3,500-4,000 fold

F-Met-Phe-Leu
fold more active than the corresponding unformylated peptide ([2]; chemotactic activity): around 3,000 fold

Met-Leu-Glu
induction of lysozyme release at highest concentrations [3]: did not induce release | times less active than F-Met-Leu-Phe ([2]; induced migration and enzyme release): 26 million | induction of beta-glucuronidase release at highest concentrations [4]: did not induce release

Met-Leu-Leu
induction of lysozyme release at highest concentrations [3]: did not induce release | beta-Glucuronidase release Relative activity ± SE [4]: > 0.0001 | induction of beta-glucuronidase release at highest concentrations [4]: did not induce release

Met-Leu-Phe
times as active as F-Met-Leu, experiment of Fig. 1 [2]: 0.43

Met-Met-Ala
induction of lysozyme release at highest concentrations [3]: did not induce release | beta-Glucuronidase release Relative activity ± SE [4]: > 0.0001 | induction of beta-glucuronidase release at highest concentrations [4]: did not induce release

Met-Phe-Leu
induction of lysozyme release at highest concentrations [3]: did not induce release | beta-Glucuronidase release Relative activity ± SE [4]: > 0.0001 | induction of beta-glucuronidase release at highest concentrations [4]: did not induce release
